Results on eleven compounds are retold here after ChEMBL document CHEMBL1828546, “Aminothiophenedicarboxamides and dicyanothiopheneacetamides as effective synthetic molluscicides against Indoplanorbis exustus snail” (Eur J Med Chem, 2011).

As a reminder, the LC50 is the concentration lethal to half of the exposed cells or organisms. A low value points to a more lethal substance.

What all share (type): functional
Assay [1] deals with Indoplanorbis exustus. Put plainly: Molluscicidal activity against Indoplanorbis exustus assessed as mortality at 0.02 to 40 ppm after 24 hrs.
Assay [2] has as its system Indoplanorbis exustus. Put plainly: Molluscicidal activity against Indoplanorbis exustus assessed as mortality at 20 ppm after 24 hrs.
Assay [3] relates to Indoplanorbis exustus. Nature of the assay: Molluscicidal activity against Indoplanorbis exustus assessed as mortality at 10 ppm after 24 hrs.
Assay [4] concerns Indoplanorbis exustus. Put plainly: Molluscicidal activity against Indoplanorbis exustus assessed as mortality at 30 ppm after 24 hrs.
The test system of assay [5] is Indoplanorbis exustus. Put plainly: Molluscicidal activity against Indoplanorbis exustus assessed as mortality at 40 ppm after 24 hrs.
In assay [6] the test system is Indoplanorbis exustus. Put plainly: Molluscicidal activity against Indoplanorbis exustus after 24 hrs.
Assay [7] relates to Indoplanorbis exustus. Nature of the assay: Molluscicidal activity against Indoplanorbis exustus assessed as mortality at 0.04 ppm after 24 hrs.
Assay [8] relates to Indoplanorbis exustus. Nature of the assay: Molluscicidal activity against Indoplanorbis exustus assessed as mortality at 0.08 ppm after 24 hrs.
For assay [9], the system named is Indoplanorbis exustus. Nature of the assay: Molluscicidal activity against Indoplanorbis exustus assessed as mortality at 0.02 ppm after 24 hrs.
The subject of assay [10] is Indoplanorbis exustus. Nature of the assay: Molluscicidal activity against Indoplanorbis exustus assessed as mortality at 0.06 ppm after 24 hrs.

The source made the active and inactive calls. The calls are words filed in the database; no cut-off is given here.

As for `Cc1nc2sc(C(N)=O)c(-c3ccc(Cl)cc3)c2c(=O)[nH]1`, in assay [1], the outcome was inactive.

For the compound `N#Cc1sc(N)c(C#N)c1-c1cc(C(F)(F)F)cc(C(F)(F)F)c1`, the result in assay [1] was inactive.

In the case of `NC(=O)c1sc(N)c(C(N)=O)c1-c1ccc(Cl)cc1`, the Activity in [2] turned out to be 20%; in [3] it was 0%; in assay [4] it was 30%; in [5], 50%. This compound also came in with a median lethal concentration (LC50) in [6] of 0.604 ppm.

For `NC(=O)c1sc(N)c(C(N)=O)c1-c1cc(C(F)(F)F)cc(C(F)(F)F)c1`, the Activity in [2] was 30%; in [3], 20%; in [4] it was 60%; in assay [5], 60%. This compound had a 50% lethal concentration (LC50) in assay [6] of 0.751 ppm.

With `CC(=O)Nc1sc(C#N)c(-c2cc(C(F)(F)F)cc(C(F)(F)F)c2)c1C#N`, the Activity in assay [7] is 30%; in [8], 70%; in assay [9] it was 20%; in assay [10] it was 50%. This compound also gave an LC50 in assay [6] of 0.74 ppm.

For the compound `CC(=O)Nc1sc(C#N)c(-c2ccc(Cl)cc2)c1C#N`, the Activity in [7] came out at 40%; in assay [8] it was 80%; in [9] it was 20%; in assay [10] it was 60%. The same compound had a 50% lethal concentration (LC50) in [6] of 0.651 ppm.

For `N#Cc1sc(N)c(C#N)c1-c1ccc(Cl)cc1`, the outcome in assay [1] was inactive.

For the compound `CC(=O)Nc1sc(C#N)c(-c2ccc(F)cc2F)c1C#N`, the Activity stood at 40% in assay [7], 60% in [8], 20% in assay [9] and 50% in assay [10]. In [6], this compound gave an LC50 of 0.763 ppm.

Take `NC(=O)c1sc2nc(CCl)[nH]c(=O)c2c1-c1ccc(Cl)cc1`: the result in assay [1] was inactive.

On to `NC(=O)c1sc(N)c(C(N)=O)c1-c1ccc(F)cc1F`, for which the Activity in assay [2] came to 40%; in [3], 20%; in assay [4], 60%; in assay [5], 70%. In addition, the LC50 in [6] was determined as 0.607 ppm.

`N#Cc1sc(N)c(C#N)c1-c1ccc(F)cc1F`: in [1], the result was inactive.
